Patent US20210204550A1, “STABILIZED FUNGICIDAL COMPOSITION” (priority 2018, published 2021)
Counter-ions that a name gives are not always drawn.

What was measured:
[1] = test system: Alternaria solani; test: Antifungal activity against Alternaria solani on tomato plants (percent control relative to untreated plants); type: in vivo
[2] = test system: Botrytis cinerea; test: Antifungal activity against Botrytis cinerea on plants (percent control relative to untreated plants); conditions: Example 3; stored at 54° C. for two weeks or at 40° C. for eight weeks
[3] = Relative fusaricidin A levels in stored formulations by HPLC/MS TOF; conditions: Example 4; 54° C. for two weeks or 40° C. for eight weeks; FIGS. 3 and 4
[4] = Example 3, stored at 54° C. for two weeks or at 40° C. for eight weeks
[5] = agent at 2% in 70:30 (BC:water) dilution, after storage at 54° C. for two weeks
[6] = across the three assays of Tables 2-4, agent at 2% in 60:40 (BC:water) dilution

Row | Molecule | effect of stabilizing agent on antifungal activity of Paenibacillus sp. strain NRRL B-50972 BC [1, 4] | effect of stabilizing agent on antifungal activity of Paenibacillus sp. strain NRRL B-50972 BC [2] | effect of stabilizing agent on antifungal activity of Paenibacillus sp. strain NRRL B-50972 BC [1, 5] | effect of stabilizing agent on fusaricidin A in Paenibacillus sp. strain NRRL B-50972 BC [3] | effect of stabilizing agent on antifungal activity of Paenibacillus sp. strain NRRL B-50972 BC [1, 6]
1 | C[N+](C)(C)CC(=O)O [betaine hydrochloride] | robust effect in stabilizing the antifungal activity | robust effect in stabilizing the antifungal activity | – | – | –
2 | O=P([O-])(O)O.[K+] [potassium phosphate (monobasic)] | – | – | did not | – | –
3 | O=P([O-])([O-])O.[K+].[K+] [potassium phosphate (dibasic)] | less than that of urea and betaine hydrochloride | less than that of urea and betaine hydrochloride | stabilized the antifungal activity | had less of an effect in stabilizing fusaricidin A | –
4 | glycerol ethyl oxylate | – | – | – | – | had little effect
5 | O=C([O-])CC(O)(CC(=O)[O-])C(=O)[O-].[K+].[K+].[K+] [Potassium citrate (tribasic), potassium citrate (tribasic)] | – | – | demonstrated a stabilizing effect | – | –
6 | NC(N)=O [urea, carbonic diamide (CO(NH2)2)] | robust effect in stabilizing the antifungal activity | robust effect in stabilizing the antifungal activity | – | – | preserved the antifungal activity
7 | N=C(N)N [guanidine hydrochloride] | – | – | – | – | preserved the antifungal activity
